Source: US20240262826A1, “WILD TYPE KIT INHIBITORS” (Blueprint Medicines Corporation, priority 2022, published 2024)

How the values were obtained:
wild type c-kit = wild type c-kit (Homo sapiens (Human), UniProt P10721); test: PathScan phospho c-kit (Tyr719) sandwich ELISA in SCF-stimulated M-07e cells (pKIT assay); assay type: cell-based; settings: ELISA assay (values not marked *)
Method in brief: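 Serum- and GM-CSF-starved M-07e cells (4 h) pretreated 60 min at 37 °C with an 8-point compound series in duplicate (0.25% DMSO), then stimulated with human SCF (500 ng/mL stock) 10 min at room temperature. Lysate c-kit Tyr719 phosphorylation quantified by sandwich ELISA with TMB read-out; IC50 from 4-parameter logistic fit.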

[1] = biological target: human P-glycoprotein (P-gp, MDR1) (Homo sapiens (Human), UniProt P08183); test: MDCK-MDR1 cell monolayer drug transport assay (P-gp efflux ratio); assay type: in vitro ADME; settings: pH 7.4, MDCK-MDR1 cells; for efflux ratio at 2 h, 1 µM: 1 uM concentration of compound, read-out: Pgp Efflux Ratio, 1 uM; for efflux ratio at 2 h, 0.1 µM: 0.1 uM concentration of compound (denoted by **), read-out: Pgp Efflux Ratio
Chain of human P-glycoprotein (P-gp, MDR1) (P08183 whole entry): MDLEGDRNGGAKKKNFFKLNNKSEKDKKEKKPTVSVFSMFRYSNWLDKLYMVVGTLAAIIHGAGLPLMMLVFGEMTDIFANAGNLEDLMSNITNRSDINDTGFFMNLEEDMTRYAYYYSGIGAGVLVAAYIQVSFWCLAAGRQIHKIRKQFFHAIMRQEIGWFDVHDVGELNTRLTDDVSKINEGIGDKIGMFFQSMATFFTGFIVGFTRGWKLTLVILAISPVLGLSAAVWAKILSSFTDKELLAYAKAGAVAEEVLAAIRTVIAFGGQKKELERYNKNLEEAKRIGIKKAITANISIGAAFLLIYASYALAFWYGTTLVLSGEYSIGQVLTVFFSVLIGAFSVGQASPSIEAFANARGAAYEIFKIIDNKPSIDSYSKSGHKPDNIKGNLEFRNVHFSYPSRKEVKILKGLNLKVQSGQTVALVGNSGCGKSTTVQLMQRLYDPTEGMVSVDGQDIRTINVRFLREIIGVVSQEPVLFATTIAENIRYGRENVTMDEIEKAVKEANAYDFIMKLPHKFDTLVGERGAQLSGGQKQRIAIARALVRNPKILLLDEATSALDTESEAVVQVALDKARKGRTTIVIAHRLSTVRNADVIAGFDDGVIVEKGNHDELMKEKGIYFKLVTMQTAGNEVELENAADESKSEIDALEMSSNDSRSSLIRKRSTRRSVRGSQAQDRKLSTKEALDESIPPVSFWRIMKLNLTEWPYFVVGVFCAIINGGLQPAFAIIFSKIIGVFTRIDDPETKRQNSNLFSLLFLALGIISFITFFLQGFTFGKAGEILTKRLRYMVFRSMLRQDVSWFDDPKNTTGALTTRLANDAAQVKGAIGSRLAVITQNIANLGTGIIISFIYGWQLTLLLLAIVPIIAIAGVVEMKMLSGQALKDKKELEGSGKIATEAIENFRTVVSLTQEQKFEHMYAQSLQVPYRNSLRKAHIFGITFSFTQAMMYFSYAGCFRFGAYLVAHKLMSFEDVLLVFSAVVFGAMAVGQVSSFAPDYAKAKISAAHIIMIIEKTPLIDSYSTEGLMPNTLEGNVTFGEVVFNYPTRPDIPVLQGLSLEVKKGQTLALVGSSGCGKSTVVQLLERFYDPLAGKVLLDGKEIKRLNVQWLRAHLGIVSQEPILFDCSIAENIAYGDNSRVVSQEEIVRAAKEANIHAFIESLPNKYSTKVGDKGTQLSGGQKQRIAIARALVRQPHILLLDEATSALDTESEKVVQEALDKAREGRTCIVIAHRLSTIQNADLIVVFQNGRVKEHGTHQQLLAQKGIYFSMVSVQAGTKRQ
Experimental: The potential for compounds prepared according to the examples to be substrates of P-gp was evaluated using in vitro on Multidrug Resistance Mutation 1-Mardin-Darby Canine Kidney (MDCK-MDR1)) (Mardin-Darby Canine Kidney) cell monolayers overexpressing P-gp grown on permeable supports.
Preparation for cell seeding: MDCK-MDR1 cell culture medium consisting of Dulbecco's Modified Eagle's Medium (DMEM) with high glucose and L-glutamine supplemented with: 10% FBS, 0.1 mg/mL of streptomycin, 0.6 μg/mL of Kanamycin sulfate and 100 units of penicillin was prepared. 50 μL of culture medium was added to each well of the Transwell insert. The Transwell insert was removed from the reservoir and 25 mL of culture medium was added. After incubation at 37° C., 5% CO2 for 1 hour, the plates were ready for cell seeding. The cells were cultivated in T-75 flasks in a cell culture incubator set at 37° C., 5% CO2, 95% relative humidity until they reached 80-90% confluence before detaching and splitting. The cultivated cells were rinsed in T-75 flasks with 5 mL PBS and aspirated off, and then 1.5 mL trypsin/EDTA was added and incubated at 37° C. for approximately 5 to 10 minutes or until the cells detach and float. The trypsin/EDTA was inactived by adding excess serum containing medium. The cell suspension was transferred to a conical tube and the cells pelleted by centrifugation at 120×g for 10 minutes. The cells were resuspended in seeding medium at a density of 1.56×10^6 cells/mL. This cell concentration was used to seed 5.45×10^5 cells/cm^2.
Seeding and feeding of MDCK-MDR1 cells into transwell plates: 50 μL of the above cell suspension was added to each well of a previously prepared Transwell plate and the plate was incubated for 4-8 days, replacing the medium every other day beginning no sooner than 48 hours after initial plating. The medium must be replaced on the day before conducting the experiment, and the procedure for medium changes was carried out as follows. The plate was removed from the incubator and placed in a hood. The medium was aspirated from a reservoir and each Transwell was inserted. 100 μL of culture medium was added to each well of the Transwell inserts and 25 mL of culture medium to reservoir tray. The plate was returned to the incubator.
Assessment of cell monolayer integrity: When the 4-day cultured MDCK-MDR1 cells reached confluence and were differentiated, the medium was removed from the reservoir and Transwell inserts. 100 μL of prewarmed culture medium was added to each transwell insert and 25 mL was added to the reservoir tray. The electrical resistance across the monolayer was measured using a Millicell Epithelial Volt-Ohm measuring system. The electrical resistance for each well was measured and then the plate was returned to the incubator. TEER values were calculated using this formula: TEER measurement (ohms)×Area of membrane (cm2)=TEER value (ohm cm2). Any monolayer with a TEER value <42 ohms·cm2, indicating poor monolayer formation, was discarded.
Performing the drug transport assay: The MDCK-MDR1 plate was removed from the incubator and the monolayer was washed, exchanging the volume two times using pre-warmed HBSS (Hank's balanced salt solution) (10 mM HEPES, pH 7.4). The plate was then incubated at 37° C. for 30 minutes. A 1 μM compound working solution was prepared as follows: Added […] of stock solution (10 mM in DMSO) of test compound and control compounds (Metoprolol, Prazosin and Imatinib) in one 96 well plate, then added 98 μL of DMSO into the same well to obtain 0.2 mM stock solutions (note a stock solution was further diluted 1:10 for eventually making a 0.1 uM compound working solution). Transfered 3 μL of 0.2 mM solution into 597 μL of transport buffer in one 96 well plate to prepare the 1 μM compound working solution. The plate was shaken at 1000 rpm for 10 min.

Chain of wild type c-kit (P10721 26-976): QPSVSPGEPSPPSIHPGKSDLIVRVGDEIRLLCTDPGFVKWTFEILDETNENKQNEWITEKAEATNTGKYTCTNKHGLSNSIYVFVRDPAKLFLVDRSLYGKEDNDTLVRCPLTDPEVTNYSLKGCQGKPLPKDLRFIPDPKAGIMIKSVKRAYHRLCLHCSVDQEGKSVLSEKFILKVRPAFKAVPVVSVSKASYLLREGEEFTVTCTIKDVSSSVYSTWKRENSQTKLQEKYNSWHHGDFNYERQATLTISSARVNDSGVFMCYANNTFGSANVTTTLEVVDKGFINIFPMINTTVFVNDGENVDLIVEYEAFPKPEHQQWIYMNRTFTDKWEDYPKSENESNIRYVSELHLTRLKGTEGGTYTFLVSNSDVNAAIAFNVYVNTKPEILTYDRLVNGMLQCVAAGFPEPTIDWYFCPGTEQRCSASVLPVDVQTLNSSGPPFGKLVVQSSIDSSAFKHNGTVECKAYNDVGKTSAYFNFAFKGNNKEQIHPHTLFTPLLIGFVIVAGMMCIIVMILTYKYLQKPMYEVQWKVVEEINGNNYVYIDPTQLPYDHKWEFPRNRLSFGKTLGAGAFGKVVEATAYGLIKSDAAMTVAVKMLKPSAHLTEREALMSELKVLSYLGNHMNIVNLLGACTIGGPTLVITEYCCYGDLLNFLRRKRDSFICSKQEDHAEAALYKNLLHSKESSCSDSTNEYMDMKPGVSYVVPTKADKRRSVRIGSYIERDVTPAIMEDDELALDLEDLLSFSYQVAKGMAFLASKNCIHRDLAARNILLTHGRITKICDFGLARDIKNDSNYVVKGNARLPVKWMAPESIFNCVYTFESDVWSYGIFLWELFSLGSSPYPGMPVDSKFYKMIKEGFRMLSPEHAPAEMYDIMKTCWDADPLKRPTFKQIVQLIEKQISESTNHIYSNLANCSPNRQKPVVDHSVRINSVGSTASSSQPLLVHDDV

| Compound | IC50 (wild type c-kit) | efflux ratio at 2 h, 1 µM [1] | efflux ratio at 2 h, 0.1 µM [1] |
| --- | --- | --- | --- |
| Cc1ccc(-c2nnn(C3CN(S(C)(=O)=O)C3)n2)cc1NC(=O)c1cnn2ccc(COCC(F)F)cc12 [Example 154, 5-((2,2-difluoroethoxy)methyl)-N-(2-methyl-5-(2-(1-(methylsulfonyl)azetidin-3-yl)-2H-tetrazol-5-yl)phenyl)pyrazolo[1,5-a]pyridine-3-carboxamide] | 18.8 nM | 37.6 | – |
| CCS(=O)(=O)N1CC(n2nnc(-c3ccc(C)c(NC(=O)c4cnn5ccccc45)c3)n2)C1 [Example 173, N-(5-(2-(1-(ethylsulfonyl)azetidin-3-yl)-2H-tetrazol-5-yl)-2-methylphenyl)pyrazolo[1,5-a]pyridine-3-carboxamide] | 12 nM | 3.5 | – |
| Cc1ccc(-n2nnc([C@@H]3CC3(F)F)n2)cc1NC(=O)c1cnn2ccc(-c3cnn(CCO)c3)cc12 (single isomer, unassigned) [Example 233, (S)-N-(5-(5-(2,2-difluorocyclopropyl)-2H-tetrazol-2-yl)-2-methylphenyl)-5-(1-(2-hydroxyethyl)-1H-pyrazol-4-yl)pyrazolo[1,5-a]pyridine-3-carboxamide or (R)-N-(5-(5-(2,2-difluorocyclopropyl)-2H-tetrazol-2-yl)-2-methylphenyl)-5-(1-(2-hydroxyethyl)-1H-pyrazol-4-yl)pyrazolo[1,5-a]pyridine-3-carboxamide] | 2.2 nM | 6.3 | – |
| COC(=O)N1CC(c2nnn(-c3ccc(C)c(NC(=O)c4cnn5ccc(N6CCN(C)CC6)cc45)c3)n2)C1 [Example 112, methyl 3-(2-(4-methyl-3-(5-(4-methylpiperazin-1-yl)pyrazolo[1,5-a]pyridine-3-carboxamido)phenyl)-2H-tetrazol-5-yl)azetidine-1-carboxylate] | 43.4 nM | 15.7 | – |
| Cc1cc(F)c(-c2nnn(C3CC3)n2)cc1NC(=O)c1cnn2ccc(-c3cnn(CC(C)(C)O)c3C)cc12 [Example 240, N-(5-(2-cyclopropyl-2H-tetrazol-5-yl)-4-fluoro-2-methylphenyl)-5-(1-(2-hydroxy-2-methylpropyl)-5-methyl-1H-pyrazol-4-yl)pyrazolo[1,5-a]pyridine-3-carboxamide] | 0.6 nM | 7.4 | – |
| C[C@](O)(CO)Cn1cc(-c2ccn3ncc(C(=O)Nc4cc(-n5nnc([C@@H]6C[C@H]6F)n5)ccc4Cl)c3c2)cn1 (single isomer, unassigned) [Example 273, N-(2-chloro-5-(5-((1S,2R)-2-fluorocyclopropyl)-2H-tetrazol-2-yl)phenyl)-5-(1-((R)-2,3-dihydroxy-2-methylpropyl)-1H-pyrazol-4-yl)pyrazolo[1,5-a]pyridine-3-carboxamide or N-(2-chloro-5-(5-((1R,2S)-2-fluorocyclopropyl)-2H-tetrazol-2-yl)phenyl)-5-(1-((R)-2,3-dihydroxy-2-methylpropyl)-1H-pyrazol-4-yl)pyrazolo[1,5-a]pyridine-3-carboxamide] | 0.5 nM | 4.9 | – |
| COCCCc1ccn2ncc(C(=O)Nc3cc(-c4nnn(C5CN(C(=O)OC)C5)n4)ccc3C)c2c1 [Example 58, methyl 3-(5-(3-(5-(3-methoxypropyl)pyrazolo[1,5-a]pyridine-3-carboxamido)-4-methylphenyl)-2H-tetrazol-2-yl)azetidine-1-carboxylate] | 126 nM | 4.1 | – |
| CC(C)(O)Cn1cc(-c2ccn3ncc(C(=O)Nc4cc(-c5nnn(C6CC6)n5)ccc4Cl)c3c2)cn1 [Example 234, N-(2-chloro-5-(2-cyclopropyl-2H-tetrazol-5-yl)phenyl)-5-(1-(2-hydroxy-2-methylpropyl)-1H-pyrazol-4-yl)pyrazolo[1,5-a]pyridine-3-carboxamide] | 0.5 nM | – | 3.8 |
| Cc1ccc(-n2nnc(C3CC3)n2)cc1NC(=O)c1cnn2cc(-c3cnn(CC4(O)CCOCC4)c3)cc(F)c12 [Example 277, N-(5-(5-cyclopropyl-2H-tetrazol-2-yl)-2-methylphenyl)-4-fluoro-6-(1-((4-hydroxytetrahydro-2H-pyran-4-yl)methyl)-1H-pyrazol-4-yl)pyrazolo[1,5-a]pyridine-3-carboxamide] | 0.5 nM | 3 | – |
| Cc1nn(CC(C)(C)O)cc1-c1ccn2ncc(C(=O)Nc3cc(-c4nnn(C5CC5)n4)c(F)cc3Cl)c2c1 [Example 251, N-(2-chloro-5-(2-cyclopropyl-2H-tetrazol-5-yl)-4-fluorophenyl)-5-(1-(2-hydroxy-2-methylpropyl)-3-methyl-1H-pyrazol-4-yl)pyrazolo[1,5-a]pyridine-3-carboxamide] | 0.4 nM | – | 1.8 |
| Cc1ccc(-c2nnn(C3CC(F)(F)C3)n2)cc1NC(=O)c1cnn2ccc(NCCO)cc12 [Example 101, N-(5-(2-(3,3-difluorocyclobutyl)-2H-tetrazol-5-yl)-2-methylphenyl)-5-((2-hydroxyethyl)amino)pyrazolo[1,5-a]pyridine-3-carboxamide] | 5.2 nM | 16 | – |
| CCOC(=O)N1CC(n2nnc(-c3ccc(C)c(NC(=O)c4cnn5ccc(NC)cc45)c3)n2)C1 [Example 126, ethyl 3-(5-(4-methyl-3-(5-(methylamino)pyrazolo[1,5-a]pyridine-3-carboxamido)phenyl)-2H-tetrazol-2-yl)azetidine-1-carboxylate] | 10.3 nM | 15.9 | – |
| Cc1nn(CCO)cc1-c1ccn2ncc(C(=O)Nc3cc(-c4nnn(C5CC5)n4)ccc3Cl)c2c1 [Example 238, N-[2-chloro-5-(2-cyclopropyl-2H-1,2,3,4-tetrazol-5-yl)phenyl]-5-[1-(2-hydroxyethyl)-3-methyl-1H-pyrazol-4-yl]pyrazolo[1,5-a]pyridine-3-carboxamide] | 0.2 nM | – | 5.9 |
| Cc1cnn(-c2ccc(C)c(NC(=O)c3cnn4ccc(-c5cnn(C[C@H]6CNCCO6)c5)cc34)c2)n1 [Example 205, (R)—N-(2-methyl-5-(4-methyl-2H-1,2,3-triazol-2-yl)phenyl)-5-(1-(morpholin-2-ylmethyl)-1H-pyrazol-4-yl)pyrazolo[1,5-a]pyridine-3-carboxamide] | – | 33.1 | – |
| Cc1ccc(-c2nnn(C3CC3)n2)cc1NC(=O)c1cnn2ccc(-c3cnn(CC4(O)CCOCC4)c3)cc12 [Example 206, N-(5-(2-cyclopropyl-2H-tetrazol-5-yl)-2-methylphenyl)-5-(1-((4-hydroxytetrahydro-2H-pyran-4-yl)methyl)-1H-pyrazol-4-yl)pyrazolo[1,5-a]pyridine-3-carboxamide] | 1.2 nM | 22.6 | – |
| Cc1ccc(-c2nnn(CCOCC(F)(F)F)n2)cc1NC(=O)c1cnn2ccc(-c3cn[nH]c3)cc12 [Example 197, N-(2-methyl-5-(2-(2-(2,2,2-trifluoroethoxy)ethyl)-2H-tetrazol-5-yl)phenyl)-5-(1H-pyrazol-4-yl)pyrazolo[1,5-a]pyridine-3-carboxamide] | – | 41 | – |
| Cc1ccc(-c2nnn(C3CC3)n2)cc1NC(=O)c1cnn2ccc(-c3cnn(C[C@H]4CNCCO4)c3)cc12 [Example 229, (R)-N-(5-(2-cyclopropyl-2H-tetrazol-5-yl)-2-methylphenyl)-5-(1-(morpholin-2-ylmethyl)-1H-pyrazol-4-yl)pyrazolo[1,5-a]pyridine-3-carboxamide] | 0.7 nM | – | – |
